Data as given in paper PMC11480411, “Mucosal sugars delineate pyrazine vs pyrazinone autoinducer signaling in Klebsiella oxytoca” (Nature Communications, 2024).
Several values for one entry are separate records, joined by “and”; a condition that tells them apart may be missing. Identical values can stand only once.

Columns and labels:
Format in all cases: cell-based
NPS = molecular target: T1, NPS (Homo sapiens, UniProt Q6W5P4); assay: PRESTO-Tango GPCR screen; conditions: 100 µM
T1 construct: purchased PRESTO-Tango GPCR kit (Roth lab / Addgene)
T1 sequence (Q6W5P4 whole entry): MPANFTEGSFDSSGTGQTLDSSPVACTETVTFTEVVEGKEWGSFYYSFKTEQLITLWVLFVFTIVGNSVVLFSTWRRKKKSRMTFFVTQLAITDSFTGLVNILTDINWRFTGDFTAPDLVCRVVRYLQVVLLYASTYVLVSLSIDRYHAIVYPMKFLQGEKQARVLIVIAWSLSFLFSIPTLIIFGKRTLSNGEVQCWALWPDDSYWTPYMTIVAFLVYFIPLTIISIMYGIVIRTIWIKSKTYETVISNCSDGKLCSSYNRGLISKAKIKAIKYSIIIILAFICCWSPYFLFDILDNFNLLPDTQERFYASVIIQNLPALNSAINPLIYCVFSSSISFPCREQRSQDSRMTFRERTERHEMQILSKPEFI
Method in brief: (§1)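 HTLA cells (HEK293 stably expressing β-arrestin-TEV and tTA-luciferase) were transiently transfected with GPCR-Tango plasmids using polyethylenimine. After 16-24 h they were stimulated with compound at 100 μM final for 20 h. Luminescence was read with Bright-Glo and expressed as fold activation over PBS control.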

P2RY13 = molecular target: T2, P2RY13 (Homo sapiens, UniProt Q9BPV8); assay: PRESTO-Tango GPCR screen; conditions: 100 µM
T2 construct: purchased PRESTO-Tango GPCR kit (Roth lab / Addgene)
Method in brief: as §1

S1PR1 = molecular target: T3, S1PR1 (Homo sapiens, UniProt P21453); assay: PRESTO-Tango GPCR screen; conditions: 100 µM
T3 construct: purchased PRESTO-Tango GPCR kit (Roth lab / Addgene)
T3 sequence (P21453 whole entry): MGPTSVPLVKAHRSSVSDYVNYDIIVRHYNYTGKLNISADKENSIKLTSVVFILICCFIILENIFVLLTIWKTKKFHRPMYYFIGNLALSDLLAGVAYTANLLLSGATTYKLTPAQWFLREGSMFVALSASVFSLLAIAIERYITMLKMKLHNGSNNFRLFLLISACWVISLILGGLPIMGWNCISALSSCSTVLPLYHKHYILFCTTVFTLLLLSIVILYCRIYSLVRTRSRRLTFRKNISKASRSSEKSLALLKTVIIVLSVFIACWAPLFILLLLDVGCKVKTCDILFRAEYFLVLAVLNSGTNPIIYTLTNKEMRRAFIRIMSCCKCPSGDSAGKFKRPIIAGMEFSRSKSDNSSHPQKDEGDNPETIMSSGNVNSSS
Method in brief: as §1

GPR133 = molecular target: T4, GPR133 (Homo sapiens, UniProt Q6QNK2); assay: PRESTO-Tango GPCR screen; conditions: 100 µM
T4 construct: purchased PRESTO-Tango GPCR kit (Roth lab / Addgene)
Method in brief: as §1

CCR10 = molecular target: T5, CCR10 (Homo sapiens, UniProt P46092); assay: PRESTO-Tango GPCR screen; conditions: 100 µM
T5 construct: purchased PRESTO-Tango GPCR kit (Roth lab / Addgene)
T5 sequence (P46092 whole entry): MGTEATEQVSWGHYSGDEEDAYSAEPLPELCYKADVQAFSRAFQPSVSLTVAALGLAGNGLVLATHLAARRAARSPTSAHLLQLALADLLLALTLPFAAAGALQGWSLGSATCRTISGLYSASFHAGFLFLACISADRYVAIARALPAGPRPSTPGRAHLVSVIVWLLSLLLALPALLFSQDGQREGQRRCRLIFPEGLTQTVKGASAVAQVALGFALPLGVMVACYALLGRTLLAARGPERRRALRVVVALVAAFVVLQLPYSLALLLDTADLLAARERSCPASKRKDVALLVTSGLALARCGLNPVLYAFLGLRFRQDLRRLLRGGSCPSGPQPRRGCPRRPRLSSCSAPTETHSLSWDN
Method in brief: as §1

VIPR1 = molecular target: T6, VIPR1 (Homo sapiens, UniProt P32241); assay: PRESTO-Tango GPCR screen; conditions: 100 µM
T6 construct: purchased PRESTO-Tango GPCR kit (Roth lab / Addgene)
Method in brief: as §1

GPR149 = molecular target: T7, GPR149 (Homo sapiens, UniProt Q86SP6); assay: PRESTO-Tango GPCR screen; conditions: 100 µM
T7 construct: purchased PRESTO-Tango GPCR kit (Roth lab / Addgene)
T7 sequence (Q86SP6 whole entry): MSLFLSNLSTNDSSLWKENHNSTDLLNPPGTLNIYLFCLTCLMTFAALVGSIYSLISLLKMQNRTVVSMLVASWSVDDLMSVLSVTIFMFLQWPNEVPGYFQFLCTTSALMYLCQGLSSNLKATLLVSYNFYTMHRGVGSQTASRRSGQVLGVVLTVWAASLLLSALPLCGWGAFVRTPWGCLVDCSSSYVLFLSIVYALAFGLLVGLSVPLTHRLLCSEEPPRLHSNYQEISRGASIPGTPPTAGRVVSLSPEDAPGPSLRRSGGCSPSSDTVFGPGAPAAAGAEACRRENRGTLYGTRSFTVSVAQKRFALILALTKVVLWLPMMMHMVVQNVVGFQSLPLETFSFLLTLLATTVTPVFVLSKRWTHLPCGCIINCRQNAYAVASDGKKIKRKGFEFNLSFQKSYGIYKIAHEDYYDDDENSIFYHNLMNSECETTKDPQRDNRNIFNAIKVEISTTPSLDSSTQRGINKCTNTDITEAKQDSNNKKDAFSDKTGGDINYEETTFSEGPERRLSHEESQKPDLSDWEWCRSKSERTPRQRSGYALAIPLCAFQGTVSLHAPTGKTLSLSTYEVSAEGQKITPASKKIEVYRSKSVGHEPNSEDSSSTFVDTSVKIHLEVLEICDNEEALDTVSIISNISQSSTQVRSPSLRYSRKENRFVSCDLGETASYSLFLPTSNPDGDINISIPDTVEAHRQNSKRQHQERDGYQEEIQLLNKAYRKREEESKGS
Method in brief: as §1

GHSR = molecular target: T8, GHSR (Homo sapiens, UniProt Q92847); assay: PRESTO-Tango GPCR screen; conditions: 100 µM
T8 construct: purchased PRESTO-Tango GPCR kit (Roth lab / Addgene)
Method in brief: as §1

TBXA2R = molecular target: T9, TBXA2R (Homo sapiens, UniProt P21731); assay: PRESTO-Tango GPCR screen; conditions: 100 µM
T9 construct: purchased PRESTO-Tango GPCR kit (Roth lab / Addgene)
T9 sequence (P21731 whole entry): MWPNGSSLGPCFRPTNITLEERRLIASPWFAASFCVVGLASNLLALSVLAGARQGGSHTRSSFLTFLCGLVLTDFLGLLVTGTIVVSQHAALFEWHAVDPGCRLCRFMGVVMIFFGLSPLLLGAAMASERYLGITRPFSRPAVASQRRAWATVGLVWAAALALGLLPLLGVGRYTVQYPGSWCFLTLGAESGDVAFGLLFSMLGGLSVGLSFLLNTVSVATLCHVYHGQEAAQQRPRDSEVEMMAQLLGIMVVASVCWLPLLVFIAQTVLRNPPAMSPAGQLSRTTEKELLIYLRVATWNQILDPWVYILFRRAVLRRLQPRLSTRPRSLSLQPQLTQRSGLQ
Method in brief: as §1

AVPR2 = molecular target: T10, AVPR2 (Homo sapiens, UniProt P30518); assay: PRESTO-Tango GPCR screen; conditions: 100 µM
T10 construct: purchased PRESTO-Tango GPCR kit (Roth lab / Addgene)
T10 sequence (P30518 whole entry): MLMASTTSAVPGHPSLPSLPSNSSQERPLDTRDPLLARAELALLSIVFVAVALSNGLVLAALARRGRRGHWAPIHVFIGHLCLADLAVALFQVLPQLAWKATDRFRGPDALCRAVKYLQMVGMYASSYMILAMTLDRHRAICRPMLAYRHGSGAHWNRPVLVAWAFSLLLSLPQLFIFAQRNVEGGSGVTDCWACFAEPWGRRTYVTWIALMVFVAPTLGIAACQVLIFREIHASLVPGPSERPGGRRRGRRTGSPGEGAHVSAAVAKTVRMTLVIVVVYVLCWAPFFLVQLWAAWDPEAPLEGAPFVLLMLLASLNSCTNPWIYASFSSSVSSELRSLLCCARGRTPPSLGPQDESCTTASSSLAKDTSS
Method in brief: as §1

HTR1E = molecular target: T11, HTR1E (Homo sapiens, UniProt P28566); assay: PRESTO-Tango GPCR screen; conditions: 100 µM
T11 construct: purchased PRESTO-Tango GPCR kit (Roth lab / Addgene)
T11 sequence (P28566 whole entry): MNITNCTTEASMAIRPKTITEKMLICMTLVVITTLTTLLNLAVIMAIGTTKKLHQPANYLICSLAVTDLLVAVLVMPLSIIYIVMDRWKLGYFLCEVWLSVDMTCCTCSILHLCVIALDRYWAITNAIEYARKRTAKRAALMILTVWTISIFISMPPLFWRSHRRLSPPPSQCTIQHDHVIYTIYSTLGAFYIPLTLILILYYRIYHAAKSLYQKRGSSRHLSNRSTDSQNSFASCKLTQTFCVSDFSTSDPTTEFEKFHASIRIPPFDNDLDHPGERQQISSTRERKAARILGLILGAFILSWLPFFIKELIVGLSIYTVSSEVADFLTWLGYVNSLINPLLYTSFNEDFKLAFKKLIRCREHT
Method in brief: as §1

CASR = molecular target: T12, CASR (Homo sapiens, UniProt P41180); assay: PRESTO-Tango GPCR screen; conditions: 100 µM
T12 construct: purchased PRESTO-Tango GPCR kit (Roth lab / Addgene)
Method in brief: as §1

GPR157 = molecular target: T13, GPR157 (Homo sapiens, UniProt Q5UAW9); assay: PRESTO-Tango GPCR screen; conditions: 100 µM
T13 construct: purchased PRESTO-Tango GPCR kit (Roth lab / Addgene)
Method in brief: as §1

FSHR = molecular target: T14, FSHR (Homo sapiens, UniProt P23945); assay: PRESTO-Tango GPCR screen; conditions: 100 µM
T14 construct: purchased PRESTO-Tango GPCR kit (Roth lab / Addgene)
Method in brief: as §1

GPR21 = molecular target: T15, GPR21 (Homo sapiens, UniProt Q99679); assay: PRESTO-Tango GPCR screen; conditions: 100 µM
T15 construct: purchased PRESTO-Tango GPCR kit (Roth lab / Addgene)
Method in brief: as §1

MTNR1B = molecular target: T16, MTNR1B (Homo sapiens, UniProt P49286); assay: PRESTO-Tango GPCR screen; conditions: 100 µM
T16 construct: purchased PRESTO-Tango GPCR kit (Roth lab / Addgene)
T16 sequence (P49286 whole entry): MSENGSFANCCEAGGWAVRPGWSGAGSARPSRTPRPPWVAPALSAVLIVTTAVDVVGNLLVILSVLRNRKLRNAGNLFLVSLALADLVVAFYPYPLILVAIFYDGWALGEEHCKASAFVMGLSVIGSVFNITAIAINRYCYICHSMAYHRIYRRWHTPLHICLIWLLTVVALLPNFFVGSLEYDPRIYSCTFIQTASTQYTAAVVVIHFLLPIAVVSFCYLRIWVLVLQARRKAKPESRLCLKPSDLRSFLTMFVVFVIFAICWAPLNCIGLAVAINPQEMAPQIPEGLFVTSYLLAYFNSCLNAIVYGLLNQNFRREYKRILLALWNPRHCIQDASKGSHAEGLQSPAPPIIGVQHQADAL
Method in brief: as §1

NMUR1 = molecular target: T17, NMUR1 (Homo sapiens, UniProt Q9HB89); assay: PRESTO-Tango GPCR screen; conditions: 100 µM
T17 construct: purchased PRESTO-Tango GPCR kit (Roth lab / Addgene)
Method in brief: as §1

GPR37L1 = molecular target: T18, GPR37L1 (Homo sapiens, UniProt O60883); assay: PRESTO-Tango GPCR screen; conditions: 100 µM
T18 construct: purchased PRESTO-Tango GPCR kit (Roth lab / Addgene)
Method in brief: as §1

GPRC5B = molecular target: T19, GPRC5B (Homo sapiens, UniProt Q9NZH0); assay: PRESTO-Tango GPCR screen; conditions: 100 µM
T19 construct: purchased PRESTO-Tango GPCR kit (Roth lab / Addgene)
T19 sequence (Q9NZH0 29-403): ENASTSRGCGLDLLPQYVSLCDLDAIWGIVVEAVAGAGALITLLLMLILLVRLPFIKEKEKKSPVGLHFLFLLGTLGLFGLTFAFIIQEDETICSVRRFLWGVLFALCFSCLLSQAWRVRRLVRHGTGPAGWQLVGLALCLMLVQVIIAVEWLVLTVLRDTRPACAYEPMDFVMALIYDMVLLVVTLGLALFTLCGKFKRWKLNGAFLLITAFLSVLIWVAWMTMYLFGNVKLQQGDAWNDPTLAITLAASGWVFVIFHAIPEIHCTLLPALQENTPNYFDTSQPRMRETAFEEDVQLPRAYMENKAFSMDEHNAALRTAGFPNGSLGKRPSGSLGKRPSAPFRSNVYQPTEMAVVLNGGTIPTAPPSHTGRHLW
Method in brief: as §1

GPR111 = molecular target: T20, GPR111 (Homo sapiens, UniProt Q8IZF7); assay: PRESTO-Tango GPCR screen; conditions: 100 µM
T20 construct: purchased PRESTO-Tango GPCR kit (Roth lab / Addgene)
Method in brief: as §1

GPR156 = molecular target: T21, GPR156 (Homo sapiens, UniProt Q8NFN8); assay: PRESTO-Tango GPCR screen; conditions: 100 µM
T21 construct: purchased PRESTO-Tango GPCR kit (Roth lab / Addgene)
Method in brief: as §1

CXCR3 = molecular target: T22, CXCR3 (Homo sapiens, UniProt P49682); assay: PRESTO-Tango GPCR screen; conditions: 100 µM
T22 construct: purchased PRESTO-Tango GPCR kit (Roth lab / Addgene)
T22 sequence (P49682 whole entry): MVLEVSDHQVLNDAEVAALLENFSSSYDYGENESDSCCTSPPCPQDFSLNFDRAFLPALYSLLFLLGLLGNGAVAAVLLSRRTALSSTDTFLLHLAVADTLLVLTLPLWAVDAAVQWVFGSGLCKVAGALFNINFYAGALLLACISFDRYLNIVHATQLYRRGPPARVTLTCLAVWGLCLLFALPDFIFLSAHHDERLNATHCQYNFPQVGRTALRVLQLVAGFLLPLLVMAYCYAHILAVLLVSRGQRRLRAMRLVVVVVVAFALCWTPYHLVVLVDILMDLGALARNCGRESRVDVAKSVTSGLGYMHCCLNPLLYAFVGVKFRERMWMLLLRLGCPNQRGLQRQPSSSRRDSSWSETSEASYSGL
Method in brief: as §1

TACR3 = molecular target: T23, TACR3 (Homo sapiens, UniProt P29371); assay: PRESTO-Tango GPCR screen; conditions: 100 µM
T23 construct: purchased PRESTO-Tango GPCR kit (Roth lab / Addgene)
Method in brief: as §1

HRH2 = molecular target: T24, HRH2 (Homo sapiens, UniProt P25021); assay: PRESTO-Tango GPCR screen and dose-response; conditions: for HRH2 dose-response raw reporter signal (Fig. 5b source data): replicate wells
T24 construct: expressed in transfected cells; host or cells: HTLA cells (HEK293 line stably expressing β-arrestin-TEV and tTA-Luciferase)
T24 sequence (P25021 whole entry): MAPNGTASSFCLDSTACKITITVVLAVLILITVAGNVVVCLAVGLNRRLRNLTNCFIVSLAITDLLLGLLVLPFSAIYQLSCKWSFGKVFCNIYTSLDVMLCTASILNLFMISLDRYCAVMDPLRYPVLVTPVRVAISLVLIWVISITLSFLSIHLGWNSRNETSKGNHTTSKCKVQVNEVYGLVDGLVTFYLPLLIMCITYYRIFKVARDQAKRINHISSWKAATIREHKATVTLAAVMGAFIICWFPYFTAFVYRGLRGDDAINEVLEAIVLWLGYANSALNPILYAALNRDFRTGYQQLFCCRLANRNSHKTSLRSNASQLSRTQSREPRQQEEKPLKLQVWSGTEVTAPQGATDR
Method in brief: (§2)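 HTLA cells (HEK293 stably expressing β-arrestin-TEV and tTA-luciferase) transiently transfected with GPCR-Tango plasmids, then exposed to compound at 100 μM final for 20 h. Luminescence read after Bright-Glo; activation fold = RLU over PBS control. Dose-response spanned 10^−4 M to 10^−15 M.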

[1] = molecular target: T25, histamine receptor H4 (HRH4) (Homo sapiens, UniProt Q9H3N8); assay: PRESTO-Tango GPCR screen and dose-response; conditions: for HRH4 dose-response raw reporter signal (Fig. 5b source data): replicate wells
T25 construct: expressed in transfected cells; host or cells: HTLA cells (HEK293 line stably expressing β-arrestin-TEV and tTA-Luciferase)
Method in brief: as §2

HRH1 = molecular target: T26, HRH1 (Homo sapiens, UniProt P35367); assay: PRESTO-Tango GPCR screen and dose-response; conditions: for HRH1 dose-response raw reporter signal (Fig. 5b source data): replicate wells
T26 construct: expressed in transfected cells; host or cells: HTLA cells (HEK293 line stably expressing β-arrestin-TEV and tTA-Luciferase)
T26 sequence (P35367 whole entry): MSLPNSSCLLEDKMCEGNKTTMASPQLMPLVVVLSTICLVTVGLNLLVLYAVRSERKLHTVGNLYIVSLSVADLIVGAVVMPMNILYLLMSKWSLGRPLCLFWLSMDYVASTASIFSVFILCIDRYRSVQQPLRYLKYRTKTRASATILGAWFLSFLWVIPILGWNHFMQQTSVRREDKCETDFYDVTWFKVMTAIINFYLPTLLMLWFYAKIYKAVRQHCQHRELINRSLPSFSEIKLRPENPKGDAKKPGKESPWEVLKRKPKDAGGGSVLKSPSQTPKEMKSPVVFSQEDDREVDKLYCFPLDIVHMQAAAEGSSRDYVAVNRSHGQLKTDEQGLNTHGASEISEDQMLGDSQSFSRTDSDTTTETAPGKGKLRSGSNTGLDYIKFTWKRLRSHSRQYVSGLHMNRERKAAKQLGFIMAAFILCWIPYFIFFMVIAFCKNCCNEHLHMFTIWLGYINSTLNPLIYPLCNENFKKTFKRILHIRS
Method in brief: as §2

- GPCR activation (heatmap value) (NPS): -0.3425
- GPCR activation (heatmap value) (P2RY13): 0.4611
- GPCR activation (heatmap value) (S1PR1): -0.03733
- GPCR activation (heatmap value) (GPR133): -0.3215
- GPCR activation (heatmap value) (CCR10): 0.7826
- GPCR activation (heatmap value) (VIPR1): -0.06399
- GPCR activation (heatmap value) (GPR149): 0.01685
- GPCR activation (heatmap value) (GHSR): 0.75
- GPCR activation (heatmap value) (TBXA2R): 0.3386
- GPCR activation (heatmap value) (AVPR2): 0.2692
- GPCR activation (heatmap value) (HTR1E): 0.001914
- GPCR activation (heatmap value) (CASR): -0.5038
- GPCR activation (heatmap value) (GPR157): 0.207
- GPCR activation (heatmap value) (FSHR): -0.01288
- GPCR activation (heatmap value) (GPR21): 0.4357
- GPCR activation (heatmap value) (MTNR1B): 0.08839
- GPCR activation (heatmap value) (NMUR1): 0.8213
- GPCR activation (heatmap value) (GPR37L1): 0.03037
- GPCR activation (heatmap value) (GPRC5B): 0.238
- GPCR activation (heatmap value) (GPR111): -0.06522
- GPCR activation (heatmap value) (GPR156): 0.2712
- GPCR activation (heatmap value) (CXCR3): 0.846
- GPCR activation (heatmap value) (TACR3): -0.1118
- GPCR activation (heatmap value) (HRH2; HRH2, 100 µM): 0.6697
- HRH2 dose-response raw reporter signal (Fig. 5b source data) (HRH2; Log(10)Conc (M) -4): 77 and 94 and 47
- HRH2 dose-response raw reporter signal (Fig. 5b source data) (HRH2; Log(10)Conc (M) -5): 50 and 38 and 83
- HRH2 dose-response raw reporter signal (Fig. 5b source data) (HRH2; Log(10)Conc (M) -6): 68 and 53 and 83
- HRH2 dose-response raw reporter signal (Fig. 5b source data) (HRH2; Log(10)Conc (M) -7): 59 and 65 and 91
- HRH2 dose-response raw reporter signal (Fig. 5b source data) (HRH2; Log(10)Conc (M) -8): 56 and 50 and 59
- HRH2 dose-response raw reporter signal (Fig. 5b source data) (HRH2; Log(10)Conc (M) -9): 44 (2×) and 59
- HRH2 dose-response raw reporter signal (Fig. 5b source data) (HRH2; Log(10)Conc (M) -10): 53 and 62 (2×)
- HRH2 dose-response raw reporter signal (Fig. 5b source data) (HRH2; Log(10)Conc (M) -11): 29 and 53 and 74
- HRH2 dose-response raw reporter signal (Fig. 5b source data) (HRH2; Log(10)Conc (M) -12): 50 and 65 and 53
- HRH2 dose-response raw reporter signal (Fig. 5b source data) (HRH2; Log(10)Conc (M) -13): 53 and 27 and 91
- HRH2 dose-response raw reporter signal (Fig. 5b source data) (HRH2; Log(10)Conc (M) -14): 41 and 77 and 68
- HRH2 dose-response raw reporter signal (Fig. 5b source data) (HRH2; Log(10)Conc (M) -15): 47 and 29 and 100
- GPCR activation (heatmap value) ([1]; HRH4, 100 µM): 2.481
- HRH4 dose-response raw reporter signal (Fig. 5b source data) ([1]; Log(10)Conc (M) -5): 18151 and 17815
- HRH4 dose-response raw reporter signal (Fig. 5b source data) ([1]; Log(10)Conc (M) -6): 6385 and 6598
- HRH4 dose-response raw reporter signal (Fig. 5b source data) ([1]; Log(10)Conc (M) -7): 1365 and 1430
- HRH4 dose-response raw reporter signal (Fig. 5b source data) ([1]; Log(10)Conc (M) -8): 793 and 758
- HRH4 dose-response raw reporter signal (Fig. 5b source data) ([1]; Log(10)Conc (M) -9): 522 and 575
- HRH4 dose-response raw reporter signal (Fig. 5b source data) ([1]; Log(10)Conc (M) -10): 463 and 475
- HRH4 dose-response raw reporter signal (Fig. 5b source data) ([1]; Log(10)Conc (M) -11): 357 and 469
- HRH4 dose-response raw reporter signal (Fig. 5b source data) ([1]; Log(10)Conc (M) -12): 542 and 504
- HRH4 dose-response raw reporter signal (Fig. 5b source data) ([1]; Log(10)Conc (M) -13): 404 and 363
- HRH4 dose-response raw reporter signal (Fig. 5b source data) ([1]; Log(10)Conc (M) -14): 351 and 360
- HRH4 dose-response raw reporter signal (Fig. 5b source data) ([1]; Log(10)Conc (M) -15): 333 and 448
- EC50 ([1]; PRESTO-Tango dose-response, n = 3, read-out: EC50 (HRH4 activation)): 2700 nM
- GPCR activation (heatmap value) (HRH1; HRH1, 100 µM): 0.1843
- HRH1 dose-response raw reporter signal (Fig. 5b source data) (HRH1; Log(10)Conc (M) -4): 49786 and 49898
- HRH1 dose-response raw reporter signal (Fig. 5b source data) (HRH1; Log(10)Conc (M) -5): 48910 and 46012
- HRH1 dose-response raw reporter signal (Fig. 5b source data) (HRH1; Log(10)Conc (M) -6): 48701 and 46228
- HRH1 dose-response raw reporter signal (Fig. 5b source data) (HRH1; Log(10)Conc (M) -7): 46626 and 44830
- HRH1 dose-response raw reporter signal (Fig. 5b source data) (HRH1; Log(10)Conc (M) -8): 47613 and 46402
- HRH1 dose-response raw reporter signal (Fig. 5b source data) (HRH1; Log(10)Conc (M) -9): 46045 and 44597
- HRH1 dose-response raw reporter signal (Fig. 5b source data) (HRH1; Log(10)Conc (M) -10): 46658 and 45508
- HRH1 dose-response raw reporter signal (Fig. 5b source data) (HRH1; Log(10)Conc (M) -11): 45821 and 45927
- HRH1 dose-response raw reporter signal (Fig. 5b source data) (HRH1; Log(10)Conc (M) -12): 46189 and 46705
- HRH1 dose-response raw reporter signal (Fig. 5b source data) (HRH1; Log(10)Conc (M) -13): 47852 and 47304
- HRH1 dose-response raw reporter signal (Fig. 5b source data) (HRH1; Log(10)Conc (M) -14): 47480 and 47139
- HRH1 dose-response raw reporter signal (Fig. 5b source data) (HRH1; Log(10)Conc (M) -15): 43822 and 41222
SMILES: CC(C)Cc1ncc(CCCCNC(=N)N)[nH]c1=O [3-Homo]
